In PubChem BioAssay AID248 (DTP/NCI, 2004):
Several values for one entry are separate records, joined by “and”; a condition that tells them apart may be missing. Equal values may be shown once. Inconclusive results and toxic doses are left out.

Tested on: L1210 leukemia ip in BDF1 mice, survival T/C
Experiment: NCI In Vivo Anticancer Drug Screen. Data for tumor model L1210 Leukemia (intraperitoneal) in B6D2F1 (BDF1) mice
Settings: endpoint: mean survival time, higher = longer survival
Procedure, shortened: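 Mice bearing the transplanted tumor received compound or vehicle. Survival of the treated group was divided by that of the vehicle-treated control group to give the ratio.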

[1] = dose: 100.0 mg/kg/injection, schedule: Q01DX001 (ip), vehicle: saline
[2] = dose: 100.0 mg/kg/injection, schedule: Q01DX001 (ip), vehicle: Klucel (hydroxypropylcellulose) (HPC)
[3] = dose: 200.0 mg/kg/injection, schedule: Q01DX001 (ip), vehicle: Klucel (hydroxypropylcellulose) (HPC)
[4] = dose: 400.0 mg/kg/injection, schedule: Q01DX001 (ip), vehicle: Klucel (hydroxypropylcellulose) (HPC)
[5] = dose: 100.0 mg/kg/injection, schedule: Q01DX009 (ip), vehicle: Klucel (hydroxypropylcellulose) (HPC)
[6] = dose: 200.0 mg/kg/injection, schedule: Q01DX009 (ip), vehicle: Klucel (hydroxypropylcellulose) (HPC)
[7] = dose: 100.0 mg/kg/injection, schedule: Q01DX009 (ip), vehicle: saline with Tween-80
[8] = dose: 100.0 mg/kg/injection, schedule: Q04DX003 (ip), vehicle: saline with Tween-80
[9] = dose: 100.0 mg/kg/injection, schedule: Q04DX003 (ip), vehicle: saline
[10] = dose: 200.0 mg/kg/injection, schedule: Q01DX009 (ip), vehicle: saline
[11] = dose: 200.0 mg/kg/injection, schedule: Q04DX003 (ip), vehicle: saline
[12] = dose: 400.0 mg/kg/injection, schedule: Q01DX009 (ip), vehicle: saline
[13] = dose: 400.0 mg/kg/injection, schedule: Q04DX003 (ip), vehicle: saline
[14] = dose: 30.0 mg/kg/injection, schedule: Q01DX Z (ip), vehicle: saline
[15] = dose: 100.0 mg/kg/injection, schedule: Q04DX003 (ip), vehicle: Klucel (hydroxypropylcellulose) (HPC)
[16] = dose: 200.0 mg/kg/injection, schedule: Q04DX003 (ip), vehicle: Klucel (hydroxypropylcellulose) (HPC)
[17] = dose: 400.0 mg/kg/injection, schedule: Q01DX009 (ip), vehicle: Klucel (hydroxypropylcellulose) (HPC)
[18] = dose: 400.0 mg/kg/injection, schedule: Q04DX003 (ip), vehicle: Klucel (hydroxypropylcellulose) (HPC)

COC(=O)CNC(=O)c1cccc([N+](=O)[O-])c1
T/C [1]: 96 % of control
T/C (dose: 200.0 mg/kg/injection, schedule: Q01DX001 (ip), vehicle: saline): 94 % of control
T/C (dose: 400.0 mg/kg/injection, schedule: Q01DX001 (ip), vehicle: saline): 97 % of control

O=NN(CCF)C(=O)NC1CS(=O)(=O)CS(=O)(=O)C1
T/C (dose: 6.25 mg/kg/injection, schedule: Q01DX001 (ip), vehicle: other): 164 % of control
T/C (dose: 12.5 mg/kg/injection, schedule: Q01DX001 (ip), vehicle: other): 204 % of control
T/C (dose: 25.0 mg/kg/injection, schedule: Q01DX001 (ip), vehicle: other): 255 % of control
T/C (dose: 50.0 mg/kg/injection, schedule: Q01DX001 (ip), vehicle: other): 262 % of control
T/C (dose: 75.0 mg/kg/injection, schedule: Q01DX001 (ip), vehicle: other): 296 % of control
T/C (dose: 100.0 mg/kg/injection, schedule: Q01DX001 (ip), vehicle: other): 205 % of control

CCCCCCCCC1OCC(C)O1 (stereo unspecified)
T/C (dose: 24.0 mg/kg/injection, schedule: Q01DX Z (ip), vehicle: methylcellulose (MC)): 94 % of control and 92 % of control
T/C (dose: 37.0 mg/kg/injection, schedule: Q01DX Z (ip), vehicle: methylcellulose (MC)): 96 % of control and 107 % of control
T/C (dose: 55.0 mg/kg/injection, schedule: Q01DX Z (ip), vehicle: methylcellulose (MC)): 86 % of control
T/C (dose: 82.5 mg/kg/injection, schedule: Q01DX Z (ip), vehicle: methylcellulose (MC)): 97 % of control and 92 % of control
T/C (dose: 124.0 mg/kg/injection, schedule: Q01DX Z (ip), vehicle: methylcellulose (MC)): 94 % of control

CC(OC(=O)c1ccc([N+](=O)[O-])cc1)C(C)OC(=O)c1ccc([N+](=O)[O-])cc1 (stereo unspecified)
T/C [2]: 92 % of control
T/C [3]: 97 % of control
T/C [4]: 97 % of control

CCCCCC#CC(=O)OCCC
T/C (dose: 100.0 mg/kg/injection, schedule: Q04DX002 (ip), vehicle: Klucel (hydroxypropylcellulose) (HPC)): 97 % of control
T/C (dose: 200.0 mg/kg/injection, schedule: Q04DX002 (ip), vehicle: Klucel (hydroxypropylcellulose) (HPC)): 101 % of control
T/C (dose: 400.0 mg/kg/injection, schedule: Q04DX002 (ip), vehicle: Klucel (hydroxypropylcellulose) (HPC)): 101 % of control

C=CCc1cnc(C(F)(F)F)[nH]c1=O
T/C (dose: 25.0 mg/kg/injection, schedule: Q01DX001 (ip), vehicle: Klucel (hydroxypropylcellulose) (HPC)): 93 % of control
T/C (dose: 50.0 mg/kg/injection, schedule: Q01DX001 (ip), vehicle: Klucel (hydroxypropylcellulose) (HPC)): 94 % of control
T/C [2]: 94 % of control

Cc1nccnc1Sc1ccc(Br)cc1
T/C (dose: 50.0 mg/kg/injection, schedule: Q01DX009 (ip), vehicle: Klucel (hydroxypropylcellulose) (HPC)): 106 % of control
T/C [5]: 113 % of control
T/C [6]: 106 % of control

Brc1ccc2[nH]cc(/C=N/Nc3nnc(N/N=C/c4c[nH]c5ccc(Br)cc45)c4ccccc34)c2c1
T/C (dose: 50.0 mg/kg/injection, schedule: Q01DX001 (ip), vehicle: saline): 101 % of control

O=S(=O)(OC1CC2C=CC1C21CC1)c1ccc(Br)cc1 (stereo unspecified)
T/C [2]: 98 % of control
T/C [3]: 97 % of control
T/C [4]: 94 % of control

CC(CO)(CI)[n+]1ccccc1 (stereo unspecified)
T/C (dose: 25.0 mg/kg/injection, schedule: Q01DX009 (ip), vehicle: saline with Tween-80): 100 % of control
T/C (dose: 50.0 mg/kg/injection, schedule: Q01DX009 (ip), vehicle: saline with Tween-80): 94 % of control
T/C [7]: 103 % of control
T/C [8]: 106 % of control

CC(=O)N1C(=O)N(Cl)C(=O)C1(c1ccc(Cl)cc1)c1ccc(Cl)cc1
T/C [7]: 108 % of control
T/C [8]: 92 % of control
T/C (dose: 200.0 mg/kg/injection, schedule: Q01DX009 (ip), vehicle: saline with Tween-80): 104 % of control
T/C (dose: 200.0 mg/kg/injection, schedule: Q04DX003 (ip), vehicle: saline with Tween-80): 100 % of control
T/C (dose: 400.0 mg/kg/injection, schedule: Q01DX009 (ip), vehicle: saline with Tween-80): 102 % of control
T/C (dose: 400.0 mg/kg/injection, schedule: Q04DX003 (ip), vehicle: saline with Tween-80): 98 % of control

OCC(CO)(CO)CBr
T/C (dose: 100.0 mg/kg/injection, schedule: Q01DX009 (ip), vehicle: saline): 96 % of control
T/C [9]: 103 % of control
T/C [10]: 105 % of control
T/C [11]: 98 % of control
T/C [12]: 104 % of control
T/C [13]: 104 % of control

C[CH2][Ge]([Cl])([CH2]C)[CH2]C
T/C (dose: 50.0 mg/kg/injection, schedule: Q04DX003 (ip), vehicle: saline with Tween-80): 99 % of control

CCCCC(/C=N/N=C(N)N)=N\N=C(N)N
T/C (dose: 15.0 mg/kg/injection, schedule: Q01DX Z (ip), vehicle: saline): 95 % of control
T/C (dose: 15.0 mg/kg/injection, schedule: Q01DX Z (oral), vehicle: saline): 98 % of control
T/C [14]: 103 % of control
T/C (dose: 30.0 mg/kg/injection, schedule: Q01DX Z (oral), vehicle: saline): 91 % of control
T/C (dose: 60.0 mg/kg/injection, schedule: Q01DX Z (oral), vehicle: saline): 91 % of control
T/C (dose: 120.0 mg/kg/injection, schedule: Q01DX Z (oral), vehicle: saline): 94 % of control

CCCCN(C=O)c1ccccc1
T/C [5]: 108 % of control
T/C [15]: 97 % of control
T/C [6]: 104 % of control
T/C [16]: 103 % of control
T/C [17]: 87 % of control
T/C [18]: 97 % of control

CC(=O)O[C@@]1(C)C(=O)OCC2=CCN3CC[C@@H](OC(=O)[C@H](C)[C@]1(C)OC(C)=O)[C@@H]23
T/C [1]: 117 % of control

COC(=O)C1(N)CCCC1
T/C (dose: 11.0 mg/kg/injection, schedule: Q01DX Z (ip), vehicle: carboxymethylcellulose (CMC)): 94 % of control
T/C (dose: 22.0 mg/kg/injection, schedule: Q01DX Z (ip), vehicle: carboxymethylcellulose (CMC)): 107 % of control
T/C (dose: 25.0 mg/kg/injection, schedule: Q01DX009 (ip), vehicle: saline): 107 % of control
T/C (dose: 30.0 mg/kg/injection, schedule: Q01DX009 (ip), vehicle: saline): 108 % of control
T/C [14]: 116 % of control
T/C (dose: 44.0 mg/kg/injection, schedule: Q01DX009 (ip), vehicle: saline): 121 % of control
T/C (dose: 45.0 mg/kg/injection, schedule: Q01DX Z (ip), vehicle: saline): 118 % of control
T/C (dose: 50.0 mg/kg/injection, schedule: Q01DX009 (ip), vehicle: saline): 109 % of control
T/C [5]: 95 % of control
T/C [15]: 104 % of control and 113 % of control
T/C [9]: 102 % of control
T/C (dose: 150.0 mg/kg/injection, schedule: Q01DX009 (ip), vehicle: saline): 95 % of control
T/C (dose: 150.0 mg/kg/injection, schedule: Q01DX Z (ip), vehicle: saline): 104 % of control
T/C [6]: 104 % of control
T/C [10]: 119 % of control and 120 % of control
T/C [16]: 121 % of control and 124 % of control
T/C [11]: 118 % of control
T/C (dose: 300.0 mg/kg/injection, schedule: Q01DX Z (ip), vehicle: carboxymethylcellulose (CMC)): 105 % of control and 115 % of control
T/C [17]: 121 % of control
T/C [12]: 98 % of control and 102 % of control
T/C (dose: 400.0 mg/kg/injection, schedule: Q01DX Z (ip), vehicle: carboxymethylcellulose (CMC)): 113 % of control
T/C [13]: 152 % of control
T/C (dose: 500.0 mg/kg/injection, schedule: Q01DX Z (ip), vehicle: carboxymethylcellulose (CMC)): 110 % of control

CCOC(=O)/C(C#N)=C1/CC2CCC1(C)OC2(C)C (stereo unspecified)
T/C [15]: 98 % of control
T/C [16]: 96 % of control
T/C [18]: 102 % of control
